In EP0162330B1, “Use of sterolins and spiroketalins in the production of medicaments for the treatment of psoriasis” (Roecar Holdings (Netherlands Antilles) N.V., priority 1984, dated 1985):

Assays:
[1] = molecular target: T1, 12-lipoxygenase of the platelets (Homo sapiens, UniProt P18054); assay: Influence upon lipoxygenase: thrombin-stimulated washed human platelets (method of Schroer et al); format: cell-based; conditions: washed human platelets stimulated with thrombin (0.6 iU/ml)
T1 construct: endogenous in cells; host or cells: washed human platelets
T1 sequence (P18054 1-663): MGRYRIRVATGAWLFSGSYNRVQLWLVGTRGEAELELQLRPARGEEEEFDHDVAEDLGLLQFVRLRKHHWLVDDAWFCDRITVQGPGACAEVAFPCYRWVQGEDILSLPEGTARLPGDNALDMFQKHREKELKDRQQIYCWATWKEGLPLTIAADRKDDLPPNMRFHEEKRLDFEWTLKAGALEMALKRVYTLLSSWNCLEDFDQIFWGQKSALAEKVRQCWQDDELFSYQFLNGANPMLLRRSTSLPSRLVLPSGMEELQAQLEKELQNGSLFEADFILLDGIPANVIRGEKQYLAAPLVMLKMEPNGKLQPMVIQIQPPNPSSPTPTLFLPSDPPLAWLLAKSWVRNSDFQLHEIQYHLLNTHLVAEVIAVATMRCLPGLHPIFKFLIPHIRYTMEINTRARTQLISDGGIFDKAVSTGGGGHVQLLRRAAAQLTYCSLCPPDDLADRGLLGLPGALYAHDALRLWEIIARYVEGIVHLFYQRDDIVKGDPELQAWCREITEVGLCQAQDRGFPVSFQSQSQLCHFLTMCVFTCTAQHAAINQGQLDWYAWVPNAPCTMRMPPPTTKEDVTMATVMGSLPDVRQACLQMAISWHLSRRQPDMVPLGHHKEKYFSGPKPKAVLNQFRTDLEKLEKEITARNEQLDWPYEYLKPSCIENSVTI
Description: The tests were performed according to the method devised by Schroer et al, Naunyn-Schmiedeberg's Arch. Pharmak. 313, 69 (1980). According to this method washed human platelets are stimulated with thrombin (0.6 iU/ml). Arachidonic acid released from the platelets upon stimulation is transformed by the 12-lipoxygenase of the platelets into 12-hydro-peroxy-eicosatetraenoic acid (12-HPETE).

[2] = tested on: antigen-induced SRS-A (leukotriene) mediated bronchoconstriction; assay: In vivo antigen-induced SRS-A (leukotriene) mediated bronchoconstriction (method of Anderson et al); set-up: species or system guinea pigs; conditions: n=8
Source text: The effect of β-Sitosterol-β-D-glucoside was investigated on antigen-induced SRS-A (leukotriene) mediated bronchoconstriction according to the method of Anderson et al (Br. J. Pharmacol. 78,67-74, 1983). Twenty-eight to thirty-three days after the single ovalbumine dose the guinea pigs were anaesthetised and surgically prepared for intravenous administration of the test compounds and measuring the ventilatory pressure. Prior to the antigen (ovalbumine) challenge the animals were adequately pretreated with indomethacin, pyrilamine and propanolol to eliminate the effect of other interfering mediators released during the anaphylactic reaction. The test substance was administered 1 minute before the ovalbumine challenge.
The vehicle (50% DMSO in water) served as a control. Phenindone was used as the standard reference substance.

[3] = molecular target: T2, 12-lipoxygenase (Homo sapiens, UniProt P18054); assay: In vitro lipoxygenase inhibition in platelets, arachidonic acid products by radio thin-layer chromatography; format: cell-based; conditions: 120' saturated solution
T2 construct: endogenous in cells; host or cells: washed human platelets
T2 sequence (P18054 1-663): T1 sequence (P18054 1-663)
Description: (§1) Washed and resuspended platelets or leucocytes were incubated in one test with a saturated solution of β-sitosterol β-D-glucoside (23,5 mg/10ml ethanol) and in a second test with a 10 times oversaturated solution with addition of 0.25 µCi arachidonic acid for 5 minutes. The test mixtures were then acidified and extracted with ethyl acetate. Separation of the reaction products was performed by radio-thinlayer-chromatography.
(§2) The number of leukocytes in test 1 was 2000 and in test 2, 1600 and the number of platelets in the platelets test 1 was 140 000 and in test 2 it was 240 000.
(§3) After incubation with the test substance a significant inhibition of the lipoxygenase products can be shown when using platelets leading to a near complete synthesis inhibition and accumulation of non-metabolized arachidonic acid. As far as leucocytes are concerned, there is a dosage-dependant inhibitory effect of the lipoxygenase whereby the changes are mainly based on 12-hydroxyeicoscatetraenoic acid (12-HETE) and 12-HPETE while lesser changes are observed for HHT.

[4] = tested on: 12-lipoxygenase; assay: In vitro lipoxygenase inhibition in leucocyte preparations, arachidonic acid products by radio thin-layer chromatography; format: cell-based, human
Description: as §1, §2, §3

[5] = 10 mg/kg i.v., 1 minute after challenge

## CCCCCC#CCC#CCC#CCC#CCCCC(=O)O [ETYA, 5,8,11,14-eicosatetraynoic acid, reference compound]
[1]; 10 µM/ml
  inhibition at 10 µM: 97%

## O=C1CCN(c2ccccc2)N1 [Phenidone, reference compound]
[2]; [5]
  MEAN CHANGE (AS % OF MAX ±S.E.M.) IN VENTILATION PRESSURE AFTER OVALBUMIN ADMINISTRATION: 3.1 ±1.0 % OF MAX

## CC[C@H](CC[C@@H](C)[C@H]1CC[C@H]2[C@@H]3CC=C4C[C@@H](O[C@@H]5O[C@H](CO)[C@@H](O)[C@H](O)[C@H]5O)CC[C@]4(C)[C@H]3CC[C@]12C)C(C)C [β-Sitosterol- β-D-glucoside, β-sitosterol β-D-glucoside]
[3]; test 1, platelets (140 000), normal 39.8
  12 HETE 12 HPETE in %: 3.8%
[3]; test 2, platelets (240 000), normal 35.0
  12 HETE 12 HPETE in %: 11.9%
[4]; test 1, leukocytes (2000), 30' oversaturated (10 times) solution, normal 50.2
  12 HETE 12 HPETE in %: 12.4%
[4]; test 1, leukocytes (2000), 30' saturated solution (23,5 mg/10ml ethanol), normal 50.2
  12 HETE 12 HPETE in %: 35.9%
[4]; test 1, leukocytes (2000), 120' saturated solution, normal 50.2
  12 HETE 12 HPETE in %: 13.4%
[4]; test 2, leukocytes (1600), 30' oversaturated (10 times) solution, normal 48.0
  12 HETE 12 HPETE in %: 22.7%
[4]; test 2, leukocytes (1600), 30' saturated solution, normal 48.0
  12 HETE 12 HPETE in %: 37.0%
[4]; test 2, leukocytes (1600), 120' saturated solution, normal 48.0
  12 HETE 12 HPETE in %: 2.7%
[2]; 1 mg/kg i.v., 1 minute after challenge
  MEAN CHANGE (AS % OF MAX ±S.E.M.) IN VENTILATION PRESSURE AFTER OVALBUMIN ADMINISTRATION: 5.8 ±4.5 % OF MAX
[2]; [5]
  MEAN CHANGE (AS % OF MAX ±S.E.M.) IN VENTILATION PRESSURE AFTER OVALBUMIN ADMINISTRATION: 1.8 ±2.8 % OF MAX
[2]; 10 mg/kg i.v., 2 minutes after challenge
  MEAN CHANGE (AS % OF MAX ±S.E.M.) IN VENTILATION PRESSURE AFTER OVALBUMIN ADMINISTRATION: 31.0 ±9.8 % OF MAX

## Diosgeninglucoside
[1]; 5 µM/ml
  inhibition: 13%
[1]; 10 µM/ml
  inhibition: 31%
[1]; 50 uM/ml
  inhibition: 60%
